Measurements as given in patent publication US20090099237A1, “Methods of treating inflammatory diseases” (Roche Palo Alto LLC, priority 2007, published 2009).

Tests used:
FGR = target: T1, FGR (Homo sapiens, UniProt P09769); experiment: KinomeScan kinase profiling; assay type: binding; conditions: 10 μM
T1 construct: purchased Ambit Biosciences

FGFR3 = target: T2, FGFR3 (Homo sapiens, UniProt P22607); experiment: KinomeScan kinase profiling; assay type: binding; conditions: 10 μM
T2 construct: purchased Ambit Biosciences

FGFR2 = target: T3, FGFR2 (Homo sapiens, UniProt P21802); experiment: KinomeScan kinase profiling; assay type: binding; conditions: 10 μM
T3 construct: purchased Ambit Biosciences
T3 sequence (P21802 22-821): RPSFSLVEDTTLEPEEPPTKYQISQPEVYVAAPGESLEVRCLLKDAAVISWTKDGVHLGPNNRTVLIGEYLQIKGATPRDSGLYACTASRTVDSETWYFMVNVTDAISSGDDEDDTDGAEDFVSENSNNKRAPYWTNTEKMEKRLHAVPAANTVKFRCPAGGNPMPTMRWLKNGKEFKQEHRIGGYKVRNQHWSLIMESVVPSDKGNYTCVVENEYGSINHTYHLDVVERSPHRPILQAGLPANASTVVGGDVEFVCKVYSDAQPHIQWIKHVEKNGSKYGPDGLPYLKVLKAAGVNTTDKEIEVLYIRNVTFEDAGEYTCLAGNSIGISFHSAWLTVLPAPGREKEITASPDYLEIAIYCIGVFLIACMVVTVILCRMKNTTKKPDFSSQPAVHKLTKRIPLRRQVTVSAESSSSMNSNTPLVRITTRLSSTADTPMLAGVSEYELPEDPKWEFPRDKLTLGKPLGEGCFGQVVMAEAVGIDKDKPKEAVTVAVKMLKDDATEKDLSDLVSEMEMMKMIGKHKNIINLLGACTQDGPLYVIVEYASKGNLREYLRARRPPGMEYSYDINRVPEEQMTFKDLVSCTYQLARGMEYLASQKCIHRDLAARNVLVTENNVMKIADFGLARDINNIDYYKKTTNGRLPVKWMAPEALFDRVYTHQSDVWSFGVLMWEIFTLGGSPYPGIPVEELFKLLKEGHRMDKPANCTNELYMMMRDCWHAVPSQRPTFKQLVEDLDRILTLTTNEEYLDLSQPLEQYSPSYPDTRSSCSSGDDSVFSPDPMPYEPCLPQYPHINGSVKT

[1] = tested on: IL-6 production in human umbilical vein endothelial cells (HUVECs); experiment: Cytokine-induced IL-6 production assay in HUVEC; assay type: cell-based; conditions: IL-1β or LPS stimulation for 6 hours, ELISA, FIG. 4
Description: Clonetics® primary human umbilical vein endothelial cells (HUVEC; Lonza Walkersville, Inc., Walkersville, Md.) were cultured according to the manufacturer's instructions in EGM™-2 medium (Lonza) supplemented with EGM-2 SingleQuots (containing fetal bovine serum, hydrocortisone, hFGF, VEGF, hFGF-B, R3-IGF-1, ascorbic acid, hEGF, heparin and gentamicin; Lonza). Where indicated, cells were stimulated with 1 ng/mL IL-1β (R&D Systems, Inc., Minneapolis, Minn.) or 50 ng/mL LPS (Sigma-Aldrich, St. Louis, Mo.) for 6 or 24 hours before cell or supernatant harvest.
Activity of IC261 and Compound A against cytokine-induced inflammation in vitro was determined in human umbilical vein endothelial cells (HUVECs) upon stimulation with either IL-1β or LPS for 6 hours. IL-6 was assessed in supernatants by ELISA according to the manufacturer's instructions (BD Biosciences), and % inhibition calculated based on maximal IL-6 production in each assay.

EPHB4 = target: T4, EPHB4 (Homo sapiens, UniProt P54760); experiment: KinomeScan kinase profiling; assay type: binding; conditions: 10 μM
T4 construct: purchased Ambit Biosciences (San Diego, Calif.)

PTK6 = target: T5, PTK6 (Homo sapiens, UniProt Q13882); experiment: KinomeScan kinase profiling; assay type: binding; conditions: 10 μM
T5 construct: purchased Ambit Biosciences

FYN = target: T6, FYN (Homo sapiens, UniProt P06241); experiment: KinomeScan kinase profiling; assay type: binding; conditions: 10 μM
T6 construct: purchased Ambit Biosciences

YES = target: T7, YES (Homo sapiens, UniProt P07947); experiment: KinomeScan kinase profiling; assay type: binding; conditions: 10 μM
T7 construct: purchased Ambit Biosciences
Description: (§1) The selectivity of a given CK1α, CK1α-CK1δ, CK1α-CK1ε or CK1α-CK1δ-CK1ε inhibitor compound can be determined by testing the compound against a panel of known kinases. An example of such a kinase profiling technology is the “KinomeScan” from Ambit Biosciences in which compounds can be screened for their modulatory activities against more than 200 known kinases.

EPHA4 = target: T8, EPHA4 (Homo sapiens, UniProt P54764); experiment: KinomeScan kinase profiling; assay type: binding; conditions: 10 μM
T8 construct: purchased Ambit Biosciences (San Diego, Calif.)
T8 sequence (P54764 20-986): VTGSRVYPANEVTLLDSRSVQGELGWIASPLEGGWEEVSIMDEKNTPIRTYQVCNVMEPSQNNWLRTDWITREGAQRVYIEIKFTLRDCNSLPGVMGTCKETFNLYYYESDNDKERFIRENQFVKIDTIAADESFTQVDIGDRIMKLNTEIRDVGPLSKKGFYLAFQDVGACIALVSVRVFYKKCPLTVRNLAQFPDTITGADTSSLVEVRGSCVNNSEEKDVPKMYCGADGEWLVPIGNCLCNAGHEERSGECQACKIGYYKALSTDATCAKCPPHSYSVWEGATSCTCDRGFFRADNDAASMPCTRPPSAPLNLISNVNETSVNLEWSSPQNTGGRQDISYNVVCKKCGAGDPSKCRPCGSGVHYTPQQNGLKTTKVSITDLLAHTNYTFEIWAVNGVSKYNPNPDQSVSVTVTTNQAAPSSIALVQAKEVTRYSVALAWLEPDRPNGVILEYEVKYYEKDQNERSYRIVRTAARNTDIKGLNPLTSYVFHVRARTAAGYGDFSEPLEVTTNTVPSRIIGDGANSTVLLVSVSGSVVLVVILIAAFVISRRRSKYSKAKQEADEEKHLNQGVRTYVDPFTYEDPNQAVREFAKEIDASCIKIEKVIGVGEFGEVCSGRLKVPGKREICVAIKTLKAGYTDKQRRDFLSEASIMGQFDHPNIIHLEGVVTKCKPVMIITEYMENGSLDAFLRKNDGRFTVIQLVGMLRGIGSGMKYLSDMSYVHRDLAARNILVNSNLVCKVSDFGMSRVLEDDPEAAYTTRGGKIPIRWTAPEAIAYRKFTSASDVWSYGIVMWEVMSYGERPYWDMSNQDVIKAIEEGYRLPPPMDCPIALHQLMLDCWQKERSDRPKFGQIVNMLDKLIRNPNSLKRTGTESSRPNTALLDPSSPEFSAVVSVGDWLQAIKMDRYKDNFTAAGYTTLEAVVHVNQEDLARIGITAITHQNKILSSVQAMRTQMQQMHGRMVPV
Description: as §1

EPHA7 = target: T9, EPHA7 (Homo sapiens, UniProt Q15375); experiment: KinomeScan kinase profiling; assay type: binding; conditions: 10 μM
T9 construct: purchased Ambit Biosciences (San Diego, Calif.)
T9 sequence (Q15375 28-998): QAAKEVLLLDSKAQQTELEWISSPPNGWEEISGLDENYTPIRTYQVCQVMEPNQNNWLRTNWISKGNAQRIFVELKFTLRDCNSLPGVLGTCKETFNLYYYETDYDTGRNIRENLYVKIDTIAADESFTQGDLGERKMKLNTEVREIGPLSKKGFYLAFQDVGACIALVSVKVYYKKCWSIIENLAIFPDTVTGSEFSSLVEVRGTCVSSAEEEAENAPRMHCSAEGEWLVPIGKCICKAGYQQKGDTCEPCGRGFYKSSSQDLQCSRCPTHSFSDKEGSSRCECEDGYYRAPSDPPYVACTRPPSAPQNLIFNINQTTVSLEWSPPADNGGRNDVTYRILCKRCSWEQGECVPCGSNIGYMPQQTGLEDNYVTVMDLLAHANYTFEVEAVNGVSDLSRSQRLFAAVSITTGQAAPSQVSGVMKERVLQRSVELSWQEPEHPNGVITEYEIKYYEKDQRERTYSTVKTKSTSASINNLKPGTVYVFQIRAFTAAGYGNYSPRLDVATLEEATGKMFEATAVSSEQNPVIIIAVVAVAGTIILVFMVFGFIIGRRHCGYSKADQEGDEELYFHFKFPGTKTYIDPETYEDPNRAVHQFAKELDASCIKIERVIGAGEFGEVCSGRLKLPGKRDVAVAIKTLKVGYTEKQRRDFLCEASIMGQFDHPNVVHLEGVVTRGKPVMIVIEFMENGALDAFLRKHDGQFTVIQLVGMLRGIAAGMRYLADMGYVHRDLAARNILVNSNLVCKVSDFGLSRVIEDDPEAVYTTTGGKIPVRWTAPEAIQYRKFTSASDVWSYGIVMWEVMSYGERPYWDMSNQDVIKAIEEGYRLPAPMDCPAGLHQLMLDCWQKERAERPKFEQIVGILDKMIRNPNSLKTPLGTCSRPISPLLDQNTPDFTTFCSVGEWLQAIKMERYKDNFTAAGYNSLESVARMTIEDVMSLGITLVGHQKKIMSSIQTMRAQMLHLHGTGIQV
Description: as §1

CAMKK1 = target: T10, CAMKK1 (Homo sapiens, UniProt Q8N5S9); experiment: KinomeScan kinase profiling; assay type: binding; conditions: 10 μM
T10 construct: purchased Ambit Biosciences (San Diego, Calif.)
T10 sequence (Q8N5S9 whole entry): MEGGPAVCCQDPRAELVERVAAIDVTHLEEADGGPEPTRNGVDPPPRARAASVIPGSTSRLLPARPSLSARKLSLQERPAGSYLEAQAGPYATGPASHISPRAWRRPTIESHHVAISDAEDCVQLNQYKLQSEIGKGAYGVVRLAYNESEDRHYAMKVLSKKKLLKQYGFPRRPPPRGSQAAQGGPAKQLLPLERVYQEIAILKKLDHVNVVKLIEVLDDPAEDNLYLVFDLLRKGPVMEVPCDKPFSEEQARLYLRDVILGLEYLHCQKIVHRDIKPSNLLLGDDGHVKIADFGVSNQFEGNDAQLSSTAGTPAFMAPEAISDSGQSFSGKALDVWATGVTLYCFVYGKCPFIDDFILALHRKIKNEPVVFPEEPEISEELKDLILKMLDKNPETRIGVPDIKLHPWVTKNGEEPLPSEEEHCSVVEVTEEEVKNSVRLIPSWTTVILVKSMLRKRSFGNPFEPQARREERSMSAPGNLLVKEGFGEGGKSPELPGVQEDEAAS
Description: as §1

ITK = target: T11, ITK (Homo sapiens, UniProt Q08881); experiment: KinomeScan kinase profiling; assay type: binding; conditions: 10 μM
T11 construct: purchased Ambit Biosciences
Description: as §1

RIPK2 = target: T12, RIPK2 (Homo sapiens, UniProt O43353); experiment: KinomeScan kinase profiling; assay type: binding; conditions: 10 μM
T12 construct: purchased Ambit Biosciences
Description: as §1

MYLK2 = MYLK2 (Homo sapiens, UniProt Q9H1R3); experiment: KinomeScan kinase profiling; assay type: binding; conditions: 10 μM
Description: as §1

ERBB4 = target: T13, ERBB4 (Homo sapiens, UniProt Q15303); experiment: KinomeScan kinase profiling; assay type: binding; conditions: 10 μM
T13 construct: purchased Ambit Biosciences
Description: as §1

CLK1 = target: T14, CLK1 (Homo sapiens, UniProt P49759); experiment: KinomeScan kinase profiling; assay type: binding; conditions: 10 μM
T14 construct: purchased Ambit Biosciences (San Diego, Calif.)
Description: as §1

GAK = target: T15, GAK (Homo sapiens, UniProt O14976); experiment: KinomeScan kinase profiling; assay type: binding; conditions: 10 μM
T15 construct: purchased Ambit Biosciences
Description: as §1

CAMK2D = target: T16, CAMK2D (Homo sapiens, UniProt Q13557); experiment: KinomeScan kinase profiling; assay type: binding; conditions: 10 μM
T16 construct: purchased Ambit Biosciences
Description: as §1

CSNK1G1 = target: T17, CSNK1G1 (Homo sapiens, UniProt Q9HCP0); experiment: KinomeScan kinase profiling; assay type: binding; conditions: 10 μM
T17 construct: purchased Ambit Biosciences (San Diego, Calif.)
Description: as §1

FRK = target: T18, FRK (Homo sapiens, UniProt P42685); experiment: KinomeScan kinase profiling; assay type: binding; conditions: 10 μM
T18 construct: purchased Ambit Biosciences
T18 sequence (P42685 whole entry): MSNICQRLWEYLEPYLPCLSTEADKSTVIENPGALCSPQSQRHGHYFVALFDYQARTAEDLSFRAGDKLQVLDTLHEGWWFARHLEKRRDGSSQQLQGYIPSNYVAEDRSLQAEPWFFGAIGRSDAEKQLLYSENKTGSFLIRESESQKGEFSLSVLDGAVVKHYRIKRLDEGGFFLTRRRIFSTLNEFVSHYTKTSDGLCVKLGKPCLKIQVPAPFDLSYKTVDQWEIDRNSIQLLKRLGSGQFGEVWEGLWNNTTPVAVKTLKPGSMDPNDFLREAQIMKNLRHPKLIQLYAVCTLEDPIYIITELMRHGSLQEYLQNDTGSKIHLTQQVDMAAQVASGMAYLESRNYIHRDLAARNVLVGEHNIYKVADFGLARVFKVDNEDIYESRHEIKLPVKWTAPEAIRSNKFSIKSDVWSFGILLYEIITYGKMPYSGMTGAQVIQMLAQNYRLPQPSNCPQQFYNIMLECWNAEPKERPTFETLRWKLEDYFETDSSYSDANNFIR
Description: as §1

STK17A = target: T19, STK17A (Homo sapiens, UniProt Q9UEE5); experiment: KinomeScan kinase profiling; assay type: binding; conditions: 10 μM
T19 construct: purchased Ambit Biosciences
Description: as §1

FLT4 = target: T20, FLT4 (Homo sapiens, UniProt P35916); experiment: KinomeScan kinase profiling; assay type: binding; conditions: 10 μM
T20 construct: purchased Ambit Biosciences
Description: as §1

PKMYT1 = target: T21, PKMYT1 (Homo sapiens, UniProt Q99640); experiment: KinomeScan kinase profiling; assay type: binding; conditions: 10 μM
T21 construct: purchased Ambit Biosciences
Description: as §1

TNIK = target: T22, TNIK (Homo sapiens, UniProt Q9UKE5); experiment: KinomeScan kinase profiling; assay type: binding; conditions: 10 μM
T22 construct: purchased Ambit Biosciences
Description: as §1

BTK = target: T23, BTK (Homo sapiens, UniProt Q06187); experiment: KinomeScan kinase profiling; assay type: binding; conditions: 10 μM
T23 construct: purchased Ambit Biosciences
T23 sequence (Q06187 whole entry): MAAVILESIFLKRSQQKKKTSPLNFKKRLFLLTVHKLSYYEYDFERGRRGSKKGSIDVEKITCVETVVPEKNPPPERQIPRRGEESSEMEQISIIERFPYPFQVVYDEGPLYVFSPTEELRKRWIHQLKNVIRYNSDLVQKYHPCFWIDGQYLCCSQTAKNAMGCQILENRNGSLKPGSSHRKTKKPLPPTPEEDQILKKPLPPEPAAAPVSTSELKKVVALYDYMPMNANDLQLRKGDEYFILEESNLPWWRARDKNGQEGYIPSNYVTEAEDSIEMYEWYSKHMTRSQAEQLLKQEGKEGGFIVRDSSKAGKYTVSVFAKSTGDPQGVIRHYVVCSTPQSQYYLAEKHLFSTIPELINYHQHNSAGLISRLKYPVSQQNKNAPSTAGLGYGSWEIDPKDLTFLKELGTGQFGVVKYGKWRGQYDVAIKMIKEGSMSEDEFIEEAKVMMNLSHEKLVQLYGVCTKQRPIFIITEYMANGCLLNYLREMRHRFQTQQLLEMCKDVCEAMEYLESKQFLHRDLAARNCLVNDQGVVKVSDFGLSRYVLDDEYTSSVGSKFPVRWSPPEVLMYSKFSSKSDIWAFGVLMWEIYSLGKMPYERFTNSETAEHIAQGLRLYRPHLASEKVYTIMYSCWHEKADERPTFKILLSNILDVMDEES
Description: as §1

DMPK = target: T24, DMPK (Homo sapiens, UniProt Q09013); experiment: KinomeScan kinase profiling; assay type: binding; conditions: 10 μM
T24 construct: purchased Ambit Biosciences (San Diego, Calif.)
Description: as §1

CSNK1G2 = target: T25, CSNK1G2 (Homo sapiens, UniProt P78368); experiment: KinomeScan kinase profiling; assay type: binding; conditions: 10 μM
T25 construct: purchased Ambit Biosciences (San Diego, Calif.)
Description: as §1

LTK = LTK (Homo sapiens, UniProt P29376); experiment: KinomeScan kinase profiling; assay type: binding; conditions: 10 μM
Description: as §1

FLT3 = target: T26, FLT3 (Homo sapiens, UniProt P36888); experiment: KinomeScan kinase profiling; assay type: binding; conditions: 10 μM
T26 construct: purchased Ambit Biosciences
Description: as §1

TRKA = target: T27, TRKA (Homo sapiens, UniProt P04629); experiment: KinomeScan kinase profiling; assay type: binding; conditions: 10 μM
T27 construct: purchased Ambit Biosciences
Description: as §1

HCK = target: T28, HCK (Homo sapiens, UniProt P08631); experiment: KinomeScan kinase profiling; assay type: binding; conditions: 10 μM
T28 construct: purchased Ambit Biosciences
Description: as §1

PDGFRB = PDGFRB (Homo sapiens, UniProt P09619); experiment: KinomeScan kinase profiling; assay type: binding; conditions: 10 μM
Description: as §1

KIT = target: T29, KIT (Homo sapiens, UniProt P10721); experiment: KinomeScan kinase profiling; assay type: binding; conditions: 10 μM
T29 construct: purchased Ambit Biosciences

T1 sequence (P09769 whole entry): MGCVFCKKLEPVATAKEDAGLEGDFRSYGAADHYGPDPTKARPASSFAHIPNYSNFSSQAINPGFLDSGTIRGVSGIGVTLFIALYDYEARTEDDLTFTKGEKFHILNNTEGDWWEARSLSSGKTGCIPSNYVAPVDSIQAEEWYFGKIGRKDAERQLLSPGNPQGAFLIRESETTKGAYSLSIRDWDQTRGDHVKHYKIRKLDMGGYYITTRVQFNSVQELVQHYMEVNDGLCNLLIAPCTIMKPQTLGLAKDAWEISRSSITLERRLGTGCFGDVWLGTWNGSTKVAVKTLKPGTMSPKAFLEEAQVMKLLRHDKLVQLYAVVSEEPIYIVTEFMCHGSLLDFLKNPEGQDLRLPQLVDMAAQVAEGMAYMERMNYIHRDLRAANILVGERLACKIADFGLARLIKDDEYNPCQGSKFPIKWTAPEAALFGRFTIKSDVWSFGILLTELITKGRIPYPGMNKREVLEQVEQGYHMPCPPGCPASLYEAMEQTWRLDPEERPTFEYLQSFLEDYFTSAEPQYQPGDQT

NC(=O)c1cc(-c2ccncc2)c[nH]1 [Compound A, 4-Pyridin-4-yl-1H-pyrrole-2-carboxylic acid amide]
% Binding (FGR): <50% | % Binding (FGFR3): <50% | % Binding (FGFR2): <50% | inhibition of IL-1β or LPS-induced IL-6 production [1]: inhibition | % Binding (EPHB4): <50% | % Binding (PTK6): <50% | % Binding (FYN): <50% | % Binding (YES): <50% | % Binding (EPHA4): <50% | % Binding (EPHA7): <50% | % Binding (CAMKK1): <50% | % Binding (ITK): <50% | % Binding (RIPK2): <50% | % Binding (MYLK2): <50% | % Binding (ERBB4): <50% | % Binding (CLK1): 97% | % Binding (GAK): <50% | % Binding (CAMK2D): <50% | % Binding (CSNK1G1): <50% | % Binding (FRK): <50% | % Binding (STK17A): 98% | % Binding (FLT4): <50% | % Binding (PKMYT1): <50% | % Binding (TNIK): <50% | % Binding (BTK): <50% | % Binding (DMPK): <50% | % Binding (CSNK1G2): 76% | % Binding (LTK): <50% | % Binding (FLT3): <50% | % Binding (TRKA): <50% | % Binding (HCK): <50% | % Binding (PDGFRB): <50% | % Binding (KIT): <50%

COc1cc(OC)c(C=C2C(O)=Nc3ccccc32)c(OC)c1 [IC261, 3-[(2,4,6-trimethoxyphenyl)methylidenyl]-indolin-2-one]
% Binding (FGR): <50% | % Binding (FGFR3): <50% | % Binding (FGFR2): <50% | inhibition of IL-1β or LPS-induced IL-6 production [1]: inhibition | % Binding (EPHB4): <50% | % Binding (PTK6): <50% | % Binding (FYN): <50% | % Binding (YES): <50% | % Binding (EPHA4): <50% | % Binding (EPHA7): <50% | % Binding (CAMKK1): <50% | % Binding (ITK): <50% | % Binding (RIPK2): <50% | % Binding (MYLK2): <50% | % Binding (ERBB4): <50% | % Binding (CLK1): <50% | % Binding (GAK): <50% | % Binding (CAMK2D): <50% | % Binding (CSNK1G1): <50% | % Binding (FRK): <50% | % Binding (STK17A): <50% | % Binding (FLT4): <50% | % Binding (PKMYT1): <50% | % Binding (TNIK): <50% | % Binding (BTK): <50% | % Binding (DMPK): <50% | % Binding (CSNK1G2): <50% | % Binding (LTK): <50% | % Binding (FLT3): <50% | % Binding (TRKA): <50% | % Binding (HCK): <50% | % Binding (PDGFRB): <50% | % Binding (KIT): <50%
